# Earlier results in patent publication US20220105100A1, “SAFE BRINZOLAMIDE AND BRIMONIDINE COMPOSITIONS WITH ENHANCED BENZALKONIUM CHLORIDE CONTENT” (Somerset Therapeutics, LLC, priority 2020, published 2022).
# Settings: laboratory, experimental, and clinical studies
substance,measurement,value
benzalkonium chloride,ophthalmological side effects,"causing tear film instability, loss of goblet cells, conjunctival squamous metaplasia and apoptosis, disruption of the conical epithelium barrier, and damage to deeper ocular tissues"
